Experiment [1] concerns the target Adenosine receptor A2a (Homo sapiens) (UniProt P29274). Nature of the experiment: Negative allosteric modulation of A2A adenosine receptor (unknown origin).
For experiment [2] the target is unchanged. Nature of the experiment: Binding affinity to A2A adenosine receptor (unknown origin).
Experiment [3] shares this target. Nature of the experiment: Positive allosteric modulation of A2A adenosine receptor (unknown origin).
Experiment [4] shares this target. In words: Antagonist activity at A2A adenosine receptor (unknown origin).

Adenosine receptor A2a (Homo sapiens), sequence (P29274 whole entry): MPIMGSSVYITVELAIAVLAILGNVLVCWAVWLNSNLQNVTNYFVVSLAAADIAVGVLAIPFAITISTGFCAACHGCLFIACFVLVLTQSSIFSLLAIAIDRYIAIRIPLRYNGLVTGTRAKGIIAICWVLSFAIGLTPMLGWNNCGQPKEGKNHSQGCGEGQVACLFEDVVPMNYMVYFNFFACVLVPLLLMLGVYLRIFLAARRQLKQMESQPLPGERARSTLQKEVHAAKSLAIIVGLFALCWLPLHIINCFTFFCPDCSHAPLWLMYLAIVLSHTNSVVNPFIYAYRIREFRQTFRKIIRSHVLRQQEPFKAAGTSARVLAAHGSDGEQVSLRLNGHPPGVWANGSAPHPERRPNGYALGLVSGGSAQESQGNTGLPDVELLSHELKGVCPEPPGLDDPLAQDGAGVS

Consider `Oc1cccc(Nc2ccccc2)c1`, for which, in experiment [1], the Activity was 2 mM.

As to `Nc1nc(-c2ccc(F)cc2)ns1`, the Activity in experiment [2] amounted to 70 nM.

`O=C(O)CCN1CCCc2ccccc21` yielded an Activity in experiment [3] of 2 mM. The compound `Nc1nnc(-c2cc(C(F)(F)F)nc(C(F)(F)F)c2)c(-c2ccccc2)n1` came in with an Activity in experiment [4] of 30 nM. Consider `Cc1cc(C)nc(NC(=N)NCCc2c[nH]c3ccc(F)cc23)n1`, for which the Activity in experiment [4] amounted to 200 nM.
